A value given as a limit tells only on which side of the number the result lay.

One may read the IC50 as the concentration needed to halve the response being measured.

T1 sequence (P08238 whole entry): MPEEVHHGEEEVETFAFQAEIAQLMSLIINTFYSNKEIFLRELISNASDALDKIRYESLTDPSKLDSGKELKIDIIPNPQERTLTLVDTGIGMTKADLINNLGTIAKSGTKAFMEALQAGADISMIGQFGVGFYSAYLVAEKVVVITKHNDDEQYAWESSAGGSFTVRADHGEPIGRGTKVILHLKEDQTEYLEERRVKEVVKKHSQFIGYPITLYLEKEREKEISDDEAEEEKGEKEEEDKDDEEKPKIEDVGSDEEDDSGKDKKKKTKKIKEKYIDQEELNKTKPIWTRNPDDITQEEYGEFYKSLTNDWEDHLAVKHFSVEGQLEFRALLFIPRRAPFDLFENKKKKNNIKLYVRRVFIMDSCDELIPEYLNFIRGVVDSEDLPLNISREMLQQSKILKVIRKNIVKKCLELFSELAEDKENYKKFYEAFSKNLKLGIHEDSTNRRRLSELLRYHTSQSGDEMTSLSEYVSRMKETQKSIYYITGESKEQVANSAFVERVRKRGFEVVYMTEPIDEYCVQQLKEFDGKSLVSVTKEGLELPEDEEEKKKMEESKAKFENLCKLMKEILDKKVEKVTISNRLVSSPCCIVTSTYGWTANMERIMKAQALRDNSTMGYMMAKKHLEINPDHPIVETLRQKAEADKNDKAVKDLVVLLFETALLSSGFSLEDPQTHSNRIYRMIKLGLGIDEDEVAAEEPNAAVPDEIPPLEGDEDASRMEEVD

The assay addresses T1, human full-length HSP90 (Homo sapiens, UniProt P08238).
T1 construct: E. coli expressed human full-length HSP90 protein, purified >95%; made in house; host or cells: E. coli
The assay is described as follows: Fluorescence polarization assay (competitive displacement of fluorescein-labelled probe from HSP90). The settings on record: activity range A or B. Format: binding. The text has this:
Fluorescence Polarization Assay
Fluorescence polarization {also known as fluorescence anisotropy} measures the rotation of a fluorescing species in solution, where the larger molecule the more polarized the fluorescence emission. When the fluorophore is excited with polarized light, the emitted light is also polarized. The molecular size is proportional to the polarization of the fluorescence emission.
The fluoroscein-labelled probe—
binds to HSP90 {full-length human, full-length yeast or N-terminal domain HSP90} and the anisotropy {rotation of the probe:protein complex} is measured.
Test compound is added to the assay plate, left to equilibrate and the anisotropy measured again. Any change in anisotropy is due to competitive binding of compound to HSP90, thereby releasing probe.
Chemicals are of the highest purity commercially available and all aqueous solutions are made up in AR water. • 1) Costar 96-well black assay plate #3915 • 2) Assay buffer of (a) 100 mM Tris pH7.4; (b) 20 mM KCl; (c) 6 mM MgCl2. Stored at room temperature. • 3) BSA (bovine serum albumen) 10 mg/ml (New England Biolabs # B9001S) • 4) 20 mM probe in 100% DMSO stock concentration. Stored in the dark at RT. Working concentration is 200 nM diluted in AR water and stored at 4° C., Final concentration in assay 80 nM. • 5) E. coli expressed human full-length HSP90 protein, purified >95% (see, e.g., Panaretou et al., 1998) and stored in 50 μL aliquots at −80° C.
• 1) Add 100 μl 1× buffer to wells 11A and 12A (=FP BLNK) • 2) Prepare assay mix—all reagents are kept on ice with a lid on the bucket as the probe is light-sensitive.
• 3) Aliquot 100 μl assay mix to all other wells • 4) Seal plate and leave in dark at room temp for 20 minutes to equilibrate Compound Dilution Plate—1×3 dilution series • 1) In a clear 96-well v-bottom plate—{# VWR 007/008/257} add 10 μl 100% DMSO to wells B1 to H11 • 2) To wells A1 to A11 add 17.5 μl 100% DMSO • 3) Add 2.5 μl cpd to A1. This gives 2.5 mM {50×} stock cpd—assuming cpds 20 mM. • 4) Repeat for wells A2 to A10. Control in columns 11 and 12. • 5) Transfer 5 μl from row A to row B—not column 12. Mix well. • 6) Transfer 5 μl from row B to row C. […] In column 11 {provides standard curve} only add compound B11-H11. Add 2 μl of 100 mM standard cpd to wells B12-H12 {is positive control} • 13) The Z′ factor is calculated from zero controls and positive wells. It typically gives a value of 0.7-0.9.
The compounds tested in the above assay were assigned to one of two activity ranges, namely A=<10 μM; B=>10 μM, and those assignments are reported above.
Background: Polarisation of emitted light reports the rotation of a fluorescent probe.
`Nc1nc(C(=NO)c2ccc3c(c2)OCO3)c2cc(C(=O)NC3CC3)sc2n1` [Example 20, 2-Amino-4-(benzo[1,3]dioxol-5-yl-hydroxyimino-methyl)-thieno[2,3-d]pyrimidine-6-carboxylic acid cyclopropylamide]: the IC50 was less than 10 µM. `CC(C)(C)NC(=O)c1cc2c(C(=NO)c3ccc4c(c3)OCO4)nc(N)nc2s1` [Example 21] yielded an IC50 of less than 10 µM. `COCCNC(=O)c1cc2c(C(=NO)c3ccc4c(c3)OCO4)nc(N)nc2s1` [Example 22] came in with an IC50 of less than 10 µM. `CN(C)CCCNC(=O)c1cc2c(C(=NO)c3ccc4c(c3)OCO4)nc(N)nc2s1` [Example 23] displayed an IC50 of less than 10 µM. Compound `CN(C)CCNC(=O)c1cc2c(C(=NO)c3ccc4c(c3)OCO4)nc(N)nc2s1` [Example 24] came in with an IC50 of less than 10 µM. `Nc1nc(C(=NO)c2ccc3c(c2)OCO3)c2cc(C(=O)NCC(F)(F)F)sc2n1` [Example 25] registered an IC50 of less than 10 µM. Turning to `CCNC(=O)c1cc2c(C(=NOCCN(CC)CC)c3ccc4c(c3)OCO4)nc(N)nc2s1` [Example 26, 2-Amino-4-(benzo[1,3]dioxol-5-yl-(2-diethylamino-ethoxyimino)-methyl]-thieno[2,3-d]pyrimidine-6-carboxylic acid ethylamide], the IC50 is less than 10 µM.

For `CCNC(=O)c1cc2c(C(=NOCCN(CC)CC)c3cccc(OC)c3)nc(N)nc2s1` [Example 31], the IC50 was less than 10 µM. As for `CCNC(=O)c1cc2c(C(=NOCCN(CC)CC)c3ccc4c(c3)OCCO4)nc(N)nc2s1` [Example 32], the IC50 was less than 10 µM. `CCNC(=O)c1cc2c(C(=NOCCN(CC)CC)c3ccc(OC)cc3)nc(N)nc2s1` [Example 33] had an IC50 of less than 10 µM. `CCNC(=O)c1cc2c(C(=NOCC(=O)O)c3ccc4c(c3)OCO4)nc(N)nc2s1` [Example 34] yielded an IC50 of less than 10 µM. `CCNC(=O)c1cc2c(C(=NOCC(=O)N3CCCCC3)c3ccc4c(c3)OCO4)nc(N)nc2s1` [Example 35] came in with an IC50 of less than 10 µM. `CCNC(=O)c1cc2c(C(=NOCCN(CC)CC)c3ccco3)nc(N)nc2s1` [Example 37] displayed an IC50 of more than 10 µM. Turning to `CCNC(=O)c1cc2c(C(=NOCCN(CC)CC)c3cccs3)nc(N)nc2s1` [Example 38], the IC50 is more than 10 µM. With `CCNC(=O)c1cc2c(C(=NOCCN3CCCC3)c3cccs3)nc(N)nc2s1` [Example 39], the concentration for half-maximal inhibition (IC50) is more than 10 µM. Consider `CCNC(=O)c1cc2c(C(=NOCCN3CCCC3=O)c3cccs3)nc(N)nc2s1` [Example 40], for which the IC50 is less than 10 µM. In the case of `CCNC(=O)c1cc2c(C(=NOCCN(CC)CC)c3ccco3)nc(N)nc2s1` [Example 41], the IC50 is less than 10 µM.

`CCNC(=O)c1cc2c(C(=NOCCN(CC)CC)c3ccncc3)nc(N)nc2s1` [Example 42] displayed an IC50 of more than 10 µM.

As to `CCNC(=O)c1cc2c(C(=NOCCN3CCCC3)c3ccco3)nc(N)nc2s1` [Example 43], the 50% inhibitory concentration (IC50) was less than 10 µM. The compound `CCN(CC)CCON=C(c1ccc2c(c1)OCO2)c1nc(N)nc2sc(C(=O)NC(C)C)cc12` [Example 44] showed an IC50 of less than 10 µM. `CC(C)NC(=O)c1cc2c(C(=NOCCN3CCCC3)c3ccc4c(c3)OCO4)nc(N)nc2s1` [Example 45] showed an IC50 of less than 10 µM. The compound `CCNC(=O)c1cc2c(C(=NOCCN3CCCC3=O)c3ccco3)nc(N)nc2s1` [Example 47] yielded an IC50 of less than 10 µM. The compound `CCNC(=O)c1cc2c(C(=NOCCN3CCCC3)c3ccncc3)nc(N)nc2s1` [Example 48] came in with an IC50 of more than 10 µM.

`CCNC(=O)c1cc2c(C(=NO)c3cccs3)nc(N)nc2s1` [Example 50] had an IC50 of less than 10 µM. Consider `CCNC(=O)c1cc2c(C(=NO)c3ccncc3)nc(N)nc2s1` [Example 51], for which the IC50 was more than 10 µM. The compound `CCN(CC)CCON=C(c1ccc2c(c1)OCO2)c1nc(N)nc2sc(C(=O)NCCOC)cc12` [Example 52] returned an IC50 of less than 10 µM. As for `COCCNC(=O)c1cc2c(C(=NOCCN3CCCC3)c3ccc4c(c3)OCO4)nc(N)nc2s1` [Example 53], the IC50 is less than 10 µM. For the compound `CCN(CC)CCON=C(c1ccc2c(c1)OCO2)c1nc(N)nc2sc(C(=O)NC(C)(C)C)cc12` [Example 55], the IC50 was less than 10 µM.

Regarding `CC(C)(C)NC(=O)c1cc2c(C(=NOCCN3CCCC3=O)c3ccc4c(c3)OCO4)nc(N)nc2s1` [Example 58], the IC50 is less than 10 µM. Compound `CCN(CC)CCON=C(c1ccc2c(c1)OCO2)c1nc(N)nc2sc(C(=O)NC3CC3)cc12` [Example 59] displayed an IC50 of less than 10 µM. Take `Nc1nc(C(=NOCCN2CCCC2)c2ccc3c(c2)OCO3)c2cc(C(=O)NC3CC3)sc2n1` [Example 60]: the IC50 was less than 10 µM. The result for `Nc1nc(C(=NOCCN2CCCC2=O)c2ccc3c(c2)OCO3)c2cc(C(=O)NC3CC3)sc2n1` [Example 61] reads less than 10 µM; that for `CCNC(=O)c1cc2c(C(=NOCCN(CC)CC)c3ccc(OC)c(OC)c3)nc(N)nc2s1` [Example 62], less than 10 µM. `CN(C)CCNC(=O)c1cc2c(C(=NOCCN3CCCC3)c3ccc4c(c3)OCO4)nc(N)nc2s1` [Example 63] returned an IC50 of more than 10 µM. The result for `CN(C)CCNC(=O)c1cc2c(C(=NOCCN3CCCC3=O)c3ccc4c(c3)OCO4)nc(N)nc2s1` [Example 64] reads more than 10 µM.

`CCN(CC)CCON=C(c1ccc2c(c1)OCO2)c1nc(N)nc2sc(C(=O)NCCN(C)C)cc12` [Example 65] registered a half-maximal inhibitory concentration (IC50) of more than 10 µM.

The compound `CCNC(=O)c1cc2c(C(=NOCCN3CCCC3=O)c3ccc(-n4cccn4)cc3)nc(N)nc2s1` [Example 67] came in with an IC50 of less than 10 µM.

Consider `CCNC(=O)c1cc2c(C(=NOCCN3CCCC3)c3ccc(-n4cccc4)cc3)nc(N)nc2s1` [Example 68], for which the IC50 was more than 10 µM.

With `CCNC(=O)c1cc2c(C(=NOCCN3CCCC3)c3ccc(-n4cccn4)cc3)nc(N)nc2s1` [Example 69], the IC50 was more than 10 µM. In the case of `CCNC(=O)c1cc2c(C(=NOCCN(CC)CC)c3ccc(-n4cccc4)cc3)nc(N)nc2s1` [Example 70], the IC50 is more than 10 µM. Consider `CCNC(=O)c1cc2c(C(=NOCCN3CCCC3=O)c3ccc(-n4cccc4)cc3)nc(N)nc2s1` [Example 71], for which the IC50 was more than 10 µM. The compound `CCNC(=O)c1cc2c(C(=NOCCN3CCCC3)c3ccc(N4CCCC4=O)cc3)nc(N)nc2s1` [Example 72] came in with a concentration for half-maximal inhibition (IC50) of less than 10 µM. `CCNC(=O)c1cc2c(C(=NOCCN(CC)CC)c3ccc(N4CCCC4=O)cc3)nc(N)nc2s1` [Example 73] showed an IC50 of more than 10 µM. `CCN(CC)CCON=C(c1ccc2c(c1)OCO2)c1nc(N)nc2sc(C(=O)NCC(F)(F)F)cc12` [Example 74] had an IC50 of less than 10 µM.

In turn, `Nc1nc(C(=NOCCN2CCCC2)c2ccc3c(c2)OCO3)c2cc(C(=O)NCC(F)(F)F)sc2n1` [Example 75] showed an IC50 of less than 10 µM. Consider `Nc1nc(C(=NOCCN2CCCC2=O)c2ccc3c(c2)OCO3)c2cc(C(=O)NCC(F)(F)F)sc2n1` [Example 76], for which the IC50 is less than 10 µM. The result for `CCNC(=O)c1cc2c(C(=NOCCN3CCCC3=O)c3ccc(N4CCCC4=O)cc3)nc(N)nc2s1` [Example 77] reads less than 10 µM; that for `CCNC(=O)c1cc2c(C(=NO)c3ccc(N4CCCC4=O)cc3)nc(N)nc2s1` [Example 78], less than 10 µM. The compound `CCNC(=O)c1cc2c(C(=NO)c3ccc(-n4cccc4)cc3)nc(N)nc2s1` [Example 80] displayed an IC50 of less than 10 µM.

As for `CCNC(=O)c1cc2c(C(=NO)c3ccc(-n4cccn4)cc3)nc(N)nc2s1` [Example 81], the IC50 is less than 10 µM.

The record behind these values is US20090054421A1, “Pyrimidothiophene Compounds Having HSP90 Inhibitory Activity” (Vernalis R & D Limited, priority 2005, published 2009).
